In patent US10590081B2, “Guanidine compounds and use thereof” (ImmunoMet Therapeutics Inc., priority 2015, dated 2020):
Where a name gives a salt, the structure may show the parent alone. Read-outs that look alike come from different tables or passages of the source.

Columns and labels:
[1] = system: SK-MEL-28 cells; assay: Cytotoxicity in low glucose condition (MTT assay); format: cell-based; conditions: 0.75 mM glucose, 72 hours treatment, read-out: SK-MEL-280.75 mM glucose cell viability (IC50 μM)
Description: Cytotoxicity Assay in Low Glucose Condition
The inhibition of oxidative phosphorylation (OXPHOS) is not cytotoxic to cells in normal glucose condition, because it is postulated that normal cells have compensatory mechanism under energy stress conditions such as low glucose. However OXPHOS inhibitors show cytotoxic effect on cells in the glucose deprived condition (BirsoyK, 2014). The glucose deprived condition is observed in tumor microenvironment potentially due to poor angiogenesis. Therefore the OXPHOS inhibitors may show anti-cancer effect on cancer cells in low glucose condition that may depict tumor microenvironment.
The compounds of the present invention were evaluated their cytotoxicity in SK-MEL-28, melanoma with 0.75 mM glucose supplement. The cytotoxic effect is compared with the cytotoxicity caused by phenformin. The cytotoxicity in low glucose condition is correlated with inhibition of oxygen consumption in mitochondria.
SK-MEL-28 (HTB-72) is a melanoma cell line obtained from ATCC (MA) and cultured in RPMI 1640 media (Lifetechnologies, CA) with supplement of 10% FBS and antibiotic-antimycotic (Lifetechnologies, CA). RPMI 1640 (−Glucose) was used to prepare low glucose media and 0.75 mM glucose was supplied with D-(+)-glucose solution from Sigma. SK-MEL-28 cells were separated from culture plate using 0.5% trypsin-EDTA and 1,250 cells were plated in 96-well plate with low glucose media. After incubation at 37° C. for 24 hour, 5% CO2, the cells were treated with the compounds of present invention in FBS-free media for 72 hours. The cytotoxicity was measured by the MTT (AMRESCO, OH) assay. NADH-dependent cellular oxidoreductase reduces MTT to its insoluble […] with purple color. The enzyme depends on cell number or energy state of cells. 10 μl of 5 mg/ml MTT solution was added to each well of the assay plate and skip the well for blank. The plate was incubated at 37° C. and 5% CO2 for 2 hours. The MTT solution was removed from each well and 100 μl of DMSO was added. The plate was read by VICTOR X3 Multilabel Counter at the wavelength of 550 nm. In Table 2, the levels of IC50 are evaluated by the following criteria.
According to the concentration of compound for killing the half of cell populations (the levels of IC50), the compounds were classified into A, B and C, when the compounds were treated on SK-MEL-28 cells at 0.75 mM glucose.

[2] = system: A549 cells; assay: Test for inhibition of OCR and enhancement of ECAR (XF Analyzer); format: cell-based; conditions: 24 hrs treatment, oxygen consumption rate
Description: Measurement of Mitochondrial Complex I Inhibition
The electron transfer complex in mitochondria is composed of 5 complexes. The complex I accept electrons from NADH produced from glycolysis and TCA cycle and the electrons move to complex […] and the electron is finally transferred to O2 and water molecule is generated. During the electron transfer, proton gradient is generated and the chemical gradient is a driving source to synthesize ATP at complex V. The mitochondrial inhibition of complex I indirectly assessed by measuring the oxygen consumption rate (OCR) at complex IV. […] The solution outside of cells becomes acidic (lower pH) as lactate is transported to outside of cells. OCR and Extracellular acidification rate (ECAR) are determined by XF Analyzer (Seahorse Biosciences).
A549 cells were purchased from American Type Tissue Culture Collection (CCL-185™) and cultured in RPMI 1640 supplied with 10% fetal bovine serum (FBS) and antibiotic-antimycotic (Lifetech, CA). A549 cells were separated with 0.5% Trypsin-EDTA and 3,000 cells were plated on 1 mg/ml poly-D-lysine (Sigma, P6407) coated XF 96 well […]. A549 cells were allowed to adhere to the wells for 24 hours under the condition of temperature, 37° C. and 5% CO2. The sensor cartridge of XF Analyzer was soaked in 200 μl of Calibrant solution (Seahorse, MA) in a clear 96-well plate at 37° C. for 24 hours. The compounds of the present invention were diluted with RPMI 1640 without FBS, transferred to A549 cells on XF 96 well plate, and incubated further for 23 hours at 37° C. and 5% CO2. After incubation, the compound solution was exchanged with pre-warmed and pH adjusted (pH7.4) XF assay media (Seahorse) supplied with 15 mM D-glucose (Sigma), 15 mM sodium pyruvate (Lifetechnologies, CA) and 4 mM L-glutamine (Lifetechnologies, CA). The compounds of present invention were prepared in XF Assay media and added to the assay plate. The assay plate was equilibrated in XF Analyzer for 1 hour, and the reading were started by sensor cartridge. The cytotoxicity assay was followed using Cyquant (Lifetechnologies, CA) in order to calibrate the inhibition with cytotoxicity of compounds. The concentrations of the compounds were tested at 0, 0.5, 1, 5, 10 and 20 μM and IC50 value was obtained from the inhibited values. That is, from OCR inhibition values at each concentration of the compound, IC50 was calculated according to Prism's dose response curve fitting.
In Table 1, the levels of OCR IC50 are evaluated by the following.
According to the test results of the compounds, the compounds were classified into A, B and C.

Molecule	IC50 ([1]; Homo sapiens, SK-MEL-28, 72 h)	IC50 ([2]; Homo sapiens)	IC50 [1]	IC50 [2]
N=C(NC(=N)N1CCC(F)(F)C1)Nc1ccc(C(F)(F)F)cc1 [Example 30, N—(N-(4-(trifluoromethyl)phenyl)carbamimidoyl)-3,3-difluoropyrrolidine-1-carboximidamide acetate]	6 to 15 µM	2 to 4 µM	–	–
N=C(NC(=N)N1CCC(F)(F)C1)Nc1ccc(I)c(Cl)c1 [Example 31, N—(N-(3-chloro-4-iodophenyl)carbamimidoyl)-3,3-difluoropyrrolidine-1-carboximidamide acetate]	6 to 15 µM	2 to 4 µM	–	–
N=C(NC(=N)N1CCC(F)(F)C1)Nc1ccc(OC(F)(F)F)c(Cl)c1 [Example 38, N—(N-(3-chloro-4-(trifluoromethoxy)phenyl)carbamimidoyl)-3,3-difluoropyrrolidine-1-carboximidamide acetate]	6 to 15 µM	2 to 4 µM	–	–
N=C(NCc1ccc(Cl)c(Cl)c1)NC(=N)N1CCC(F)(F)CC1 [Example 42, N—(N-(3,4-dichlorobenzyl)carbamimidoyl)-4,4-difluoropiperidine-1-carboximidamide hydrochloride]	6 to 15 µM	> 4 µM	–	–
N—(N-(4-(trifluoromethythio)phenyl)carbamimidoyl)-3,3-difluoropyrrolidine-1-carboximidamide acetate [Example 32]	–	–	< 6 µM	2 to 4 µM
